Laboratory results taken from US8758816B2, “Compositions comprising azelastine and methods of use thereof” (priority 2004, dated 2014).

Tested on: patients with seasonal allergic rhinitis (SAR)
Experiment: MP 428 two-week randomized double-blind study: Total Nasal Symptom Score (TNSS), change from baseline
Format: in vivo, human
Set-up: key to Change from Baseline in AM TNSS, Mean / Change from Baseline in AM TNSS, LS Mean / Change from Baseline in AM TNSS, Median: TNSS sum of 4 symptoms each 0-3 (0=none, 3=severe); change from baseline
Experimental: A two-week, randomized, double-blind study, which evaluated the effects of the co-administration of ASTELIN® (azelastine hydrochloride (HCl)) and FLONASE® (fluticasone propionate) compared to either product alone in patients with seasonal allergic rhinitis (SAR) was conducted during the 2006 Texas mountain cedar season. After a 5-day placebo lead-in period, 151 patients with moderate-to-severe allergic rhinitis symptoms were randomized to either: (1) (49 total patients) ASTELIN® (azelastine hydrochloride (HCl)) plus placebo saline nasal spray 2 sprays per nostril, 15 minutes apart, twice daily (AM & PM); (2) (50 total patients) FLONASE® (fluticasone propionate) plus placebo saline nasal spray, 2 sprays per nostril, 15 minutes apart, once daily (AM) and two sessions of placebo saline nasal spray, 2 sprays per nostril, 15 minutes apart (PM); or (3) (52 total patients) the co-administration of ASTELIN® (azelastine hydrochloride (HCl)) 2 sprays per nostril plus FLONASE® (fluticasone propionate) 2 sprays per nostril (AM), 15 minutes apart, and ASTELIN® (azelastine hydrochloride (HCl)) 2 sprays per nostril plus placebo saline nasal spray, 15 minutes apart, (PM) for a 2-week double-blind treatment period.
The primary efficacy variable was the change from baseline in the Total Nasal Symptom Score (TNSS), which comprised sneezing, itchy nose, runny nose, and nasal congestion (individual symptoms scores were assigned a value between 0 and 3, where 0=no symptoms and 3=severe symptoms). This study was not statistically designed to assess the differences between ASTELIN® and FLONASE®.

[1] = Day 5, Intent-to-Treat Population
[2] = Day 6, Intent-to-Treat Population
[3] = Day 7, Intent-to-Treat Population
[4] = Day 8, Intent-to-Treat Population
[5] = Day 9, Intent-to-Treat Population

CCC(=O)O[C@]1(C(=O)SCF)[C@H](C)C[C@H]2[C@@H]3C[C@H](F)C4=CC(=O)C=C[C@]4(C)[C@@]3(F)[C@@H](O)C[C@@]21C [Fluticasone, fluticasone propionate]
Percent Change from Baseline in AM and PM Combined TNSS, Mean [1]: −26.89% | Percent Change from Baseline in AM and PM Combined TNSS, Median [1]: −22.77% | Percent Change from Baseline in PM TNSS, LS Mean [1]: −27.51% | Percent Change from Baseline in PM TNSS, Mean [1]: −27.06% | Percent Change from Baseline in PM TNSS, Median [1]: −22.22% | Change from Baseline in AM and PM Combined TNSS, LS Mean (Day 5, Intent-to-Treat Population, ANCOVA model): −5.20 | Change from Baseline in AM and PM Combined TNSS, LS Mean (Day 5, Per-Protocol Population): −5.23 | Change from Baseline in AM and PM Combined TNSS, Mean (Day 5, Per-Protocol Population): −5.23 | Change from Baseline in AM and PM Combined TNSS, Median (Day 5, Per-Protocol Population): −4.40 | Percent Change from Baseline in AM and PM Combined TNSS, LS Mean (Day 5, Per-Protocol Population): −27.42% | Percent Change from Baseline in AM and PM Combined TNSS, Mean (Day 5, Per-Protocol Population): −27.16% | Percent Change from Baseline in AM and PM Combined TNSS, Median (Day 5, Per-Protocol Population): −22.77% | Change from Baseline in AM TNSS, LS Mean [2]: −2.59 | Change from Baseline in AM TNSS, Mean [2]: −2.57 | Change from Baseline in AM TNSS, Median [2]: −2.20 | Change from Baseline in AM and PM Combined TNSS, Mean [2]: −5.10 | Change from Baseline in AM and PM Combined TNSS, Median [2]: −4.45 | Change from Baseline in PM TNSS, LS Mean [2]: −2.53 | Change from Baseline in PM TNSS, Mean [2]: −2.53 | Change from Baseline in PM TNSS, Median [2]: −2.00 | Percent Change from Baseline in AM TNSS, LS Mean [2]: −27.42% | Percent Change from Baseline in AM TNSS, Mean [2]: −27.12% | Percent Change from Baseline in AM TNSS, Median [2]: −23.81% | Percent Change from Baseline in AM and PM Combined TNSS, LS Mean [2]: −27.15% | Percent Change from Baseline in AM and PM Combined TNSS, Mean [2]: −26.90% | Percent Change from Baseline in AM and PM Combined TNSS, Median [2]: −22.20% | Percent Change from Baseline in PM TNSS, LS Mean [2]: −26.81% | Percent Change from Baseline in PM TNSS, Mean [2]: −26.62% | Percent Change from Baseline in PM TNSS, Median [2]: −22.22% | Change from Baseline in AM and PM Combined TNSS, LS Mean (Day 6, Intent-to-Treat Population, ANCOVA model): −5.12 | Change from Baseline in AM and PM Combined TNSS, LS Mean (Day 6, Per-Protocol Population): −5.11 | Change from Baseline in AM and PM Combined TNSS, Mean (Day 6, Per-Protocol Population): −5.12 | Change from Baseline in AM and PM Combined TNSS, Median (Day 6, Per-Protocol Population): −4.45 | Percent Change from Baseline in AM and PM Combined TNSS, LS Mean (Day 6, Per-Protocol Population): −27.15% | Percent Change from Baseline in AM and PM Combined TNSS, Mean (Day 6, Per-Protocol Population): −26.95% | Percent Change from Baseline in AM and PM Combined TNSS, Median (Day 6, Per-Protocol Population): −22.20% | Change from Baseline in AM TNSS, LS Mean [3]: −2.55 | Change from Baseline in AM TNSS, Mean [3]: −2.57 | Change from Baseline in AM TNSS, Median [3]: −2.00 | Change from Baseline in AM and PM Combined TNSS, Mean [3]: −5.02 | Change from Baseline in AM and PM Combined TNSS, Median [3]: −5.00 | Change from Baseline in PM TNSS, LS Mean [3]: −2.50 | Change from Baseline in PM TNSS, Mean [3]: −2.45 | Change from Baseline in PM TNSS, Median [3]: −2.00 | Percent Change from Baseline in AM TNSS, LS Mean [3]: −26.16% | Percent Change from Baseline in AM TNSS, Mean [3]: −26.29% | Percent Change from Baseline in AM TNSS, Median [3]: −22.22% | Percent Change from Baseline in AM and PM Combined TNSS, LS Mean [3]: −26.00% | Percent Change from Baseline in AM and PM Combined TNSS, Mean [3]: −25.75% | Percent Change from Baseline in AM and PM Combined TNSS, Median [3]: −23.81% | Percent Change from Baseline in PM TNSS, LS Mean [3]: −25.72% | Percent Change from Baseline in PM TNSS, Mean [3]: −25.18% | Percent Change from Baseline in PM TNSS, Median [3]: −20.45% | Change from Baseline in AM and PM Combined TNSS, LS Mean (Day 7, Intent-to-Treat Population, ANCOVA model): −5.06 | Change from Baseline in AM and PM Combined TNSS, LS Mean (Day 7, Per-Protocol Population): −4.98 | Change from Baseline in AM and PM Combined TNSS, Mean (Day 7, Per-Protocol Population): −4.99 | Change from Baseline in AM and PM Combined TNSS, Median (Day 7, Per-Protocol Population): −5.00 | Percent Change from Baseline in AM and PM Combined TNSS, LS Mean (Day 7, Per-Protocol Population): −25.63% | Percent Change from Baseline in AM and PM Combined TNSS, Mean (Day 7, Per-Protocol Population): −25.57% | Percent Change from Baseline in AM and PM Combined TNSS, Median (Day 7, Per-Protocol Population): −23.81% | Change from Baseline in AM TNSS, LS Mean [4]: −2.40 | Change from Baseline in AM TNSS, Mean [4]: −2.36 | Change from Baseline in AM TNSS, Median [4]: −1.67 | Change from Baseline in AM and PM Combined TNSS, Mean [4]: −4.55 | Change from Baseline in AM and PM Combined TNSS, Median [4]: −3.70 | Change from Baseline in PM TNSS, LS Mean [4]: −2.24 | Change from Baseline in PM TNSS, Mean [4]: −2.18 | Change from Baseline in PM TNSS, Median [4]: −2.00 | Percent Change from Baseline in AM TNSS, LS Mean [4]: −25.01% | Percent Change from Baseline in AM TNSS, Mean [4]: −24.67% | Percent Change from Baseline in AM TNSS, Median [4]: −19.23% | Percent Change from Baseline in AM and PM Combined TNSS, LS Mean [4]: −23.87% | Percent Change from Baseline in AM and PM Combined TNSS, Mean [4]: −23.38% | Percent Change from Baseline in AM and PM Combined TNSS, Median [4]: −20.97% | Percent Change from Baseline in PM TNSS, LS Mean [4]: −22.44% | Percent Change from Baseline in PM TNSS, Mean [4]: −21.91% | Percent Change from Baseline in PM TNSS, Median [4]: −21.95% | Change from Baseline in AM and PM Combined TNSS, LS Mean (Day 8, Intent-to-Treat Population, ANCOVA model): −4.64 | Change from Baseline in AM and PM Combined TNSS, LS Mean (Day 8, Per-Protocol Population): −4.61 | Change from Baseline in AM and PM Combined TNSS, Mean (Day 8, Per-Protocol Population): −4.59 | Change from Baseline in AM and PM Combined TNSS, Median (Day 8, Per-Protocol Population): −3.70 | Percent Change from Baseline in AM and PM Combined TNSS, LS Mean (Day 8, Per-Protocol Population): −23.68% | Percent Change from Baseline in AM and PM Combined TNSS, Mean (Day 8, Per-Protocol Population): −23.43% | Percent Change from Baseline in AM and PM Combined TNSS, Median (Day 8, Per-Protocol Population): −20.97% | Change from Baseline in AM TNSS, LS Mean [5]: −2.43 | Change from Baseline in AM TNSS, Mean [5]: −2.38
